# Reference: publication PMC5226424 (Biochemistry, 2016)
# Target: T1, carboxyltransferase from S. aureus (SaCT) (Staphylococcus aureus, UniProt Q2FXM7+Q5HF73)
# T1 sequence (Q2FXM7 1-314): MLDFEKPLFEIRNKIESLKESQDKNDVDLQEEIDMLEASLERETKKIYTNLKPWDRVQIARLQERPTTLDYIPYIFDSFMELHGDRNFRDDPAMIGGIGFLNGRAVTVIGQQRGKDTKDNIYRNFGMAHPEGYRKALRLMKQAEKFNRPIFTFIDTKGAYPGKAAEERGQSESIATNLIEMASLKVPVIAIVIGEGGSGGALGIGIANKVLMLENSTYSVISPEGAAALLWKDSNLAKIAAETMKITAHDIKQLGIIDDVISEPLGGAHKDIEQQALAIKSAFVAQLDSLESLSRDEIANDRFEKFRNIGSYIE
# T1 sequence (Q5HF73 1-285): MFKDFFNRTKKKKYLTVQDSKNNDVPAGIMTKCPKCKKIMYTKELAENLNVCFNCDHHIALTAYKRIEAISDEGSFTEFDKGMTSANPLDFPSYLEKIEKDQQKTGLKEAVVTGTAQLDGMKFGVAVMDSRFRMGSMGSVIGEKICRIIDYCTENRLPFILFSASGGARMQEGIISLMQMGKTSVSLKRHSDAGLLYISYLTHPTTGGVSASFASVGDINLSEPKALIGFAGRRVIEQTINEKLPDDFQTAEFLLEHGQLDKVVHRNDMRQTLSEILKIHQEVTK
# Experiment: coupled citrate synthase / malate dehydrogenase assay at […] nm, reverse direction
# Type: biochemical
# Conditions: 150 μM malonyl-CoA, 6 mM biocytin, pH 8.0
compound,measurement,value
"C[C@H]1CC(=O)NC1=O [compound 4, (3S)-Methyl-pyrrolidine-2,5-dione]",% decrease in activity at 50 nM,65%
